Assay results reported in patent US20180116983A1, “COMPOUNDS FOR TREATING DISORDERS ASSOCIATED WITH BK CHANNEL MODULATION” (Canbex Therapeutics Limited, priority 2015, published 2018).

Tests used:
[1] = target: T1, KNCMA1 (Sus scrofa, UniProt O18866); test: Whole-cell current in primary pig aortic endothelial cells; type: cell-based
T1 construct: endogenous in cells; host or cells: primary pig aortic endothelial cells
Text: Pig aortic endothelial cells only express KNCMAI and not KNCMB1-4 (Papassotiriou et al). Thus, the absence of stimulation indicates a lack of effect on KNCMA1.

[2] = target: T2, BK channel (Homo sapiens, UniProt Q12791); test: Inside-out patch clamp (single channel) on EA.hy926 cells; type: cell-based; parameters: The human umbilical vein derived endothelial cell line, EA.hy926; endogenous in cells; host or cells: EA.hy926 human endothelial cell line; conditions: human EA.hy926 cells, calcium dependent
Protocol: The human umbilical vein derived endothelial cell line, EA.hy926 (Edgell et al., Proc Natl Acad Sci USA. 1983 June; 80(12): 3734-7) at passage >45 was grown in DMEM containing 10% FCS and 1% HAT (5 mM hypoxanthine, 20 μM aminopterin, 0.8 mM thymidine) and cells were maintained in an incubator at 37° C. in 5% CO2 atmosphere. Cells were plated on either 10 mm (for patch-clamp recordings) or 30 mm glass cover slips (for Ca^2+ measurements).
Single-channel recordings were obtained from excised inside-out membrane patches in symmetrical solutions. The pipettes were filled with (in mM) 140 KCl, 10 HEPES, 1 MgCl2, 5 EGTA, 4,931 CaCl2 with pH 7.2 by adding KOH (i.e. 10 μM free Ca^2+, G. Droogmans, Leuven, Belgium; ftp://ftp.cc.kuleuven.ac.be/pub/droodmans/cabuf.zip). Cells were perfused with a standard bath solution containing (in mM) 140 NaCl, 5 KCl, 1.2 MgCl2, 10 HEPES, 10 glucose, 2.4 CaCl2. Following gigaseal formation, bath solution was switched to the following (in mM) 140 KCl, 10 HEPES, 1 MgCl2, 5 EGTA and a desired free Ca^2+ concentration which was adjusted by adding different amounts of CaCl2 calculated by the program CaBuf. pH was adjusted to 7.2 by adding KOH. Membrane currents and potential were recorded using a List EPC7 amplifier (List, Germany) and pClamp (version 8.2, Axon Instruments) software.
Target sequence in this assay (Q12791 1-1178 isoform Q12791-5): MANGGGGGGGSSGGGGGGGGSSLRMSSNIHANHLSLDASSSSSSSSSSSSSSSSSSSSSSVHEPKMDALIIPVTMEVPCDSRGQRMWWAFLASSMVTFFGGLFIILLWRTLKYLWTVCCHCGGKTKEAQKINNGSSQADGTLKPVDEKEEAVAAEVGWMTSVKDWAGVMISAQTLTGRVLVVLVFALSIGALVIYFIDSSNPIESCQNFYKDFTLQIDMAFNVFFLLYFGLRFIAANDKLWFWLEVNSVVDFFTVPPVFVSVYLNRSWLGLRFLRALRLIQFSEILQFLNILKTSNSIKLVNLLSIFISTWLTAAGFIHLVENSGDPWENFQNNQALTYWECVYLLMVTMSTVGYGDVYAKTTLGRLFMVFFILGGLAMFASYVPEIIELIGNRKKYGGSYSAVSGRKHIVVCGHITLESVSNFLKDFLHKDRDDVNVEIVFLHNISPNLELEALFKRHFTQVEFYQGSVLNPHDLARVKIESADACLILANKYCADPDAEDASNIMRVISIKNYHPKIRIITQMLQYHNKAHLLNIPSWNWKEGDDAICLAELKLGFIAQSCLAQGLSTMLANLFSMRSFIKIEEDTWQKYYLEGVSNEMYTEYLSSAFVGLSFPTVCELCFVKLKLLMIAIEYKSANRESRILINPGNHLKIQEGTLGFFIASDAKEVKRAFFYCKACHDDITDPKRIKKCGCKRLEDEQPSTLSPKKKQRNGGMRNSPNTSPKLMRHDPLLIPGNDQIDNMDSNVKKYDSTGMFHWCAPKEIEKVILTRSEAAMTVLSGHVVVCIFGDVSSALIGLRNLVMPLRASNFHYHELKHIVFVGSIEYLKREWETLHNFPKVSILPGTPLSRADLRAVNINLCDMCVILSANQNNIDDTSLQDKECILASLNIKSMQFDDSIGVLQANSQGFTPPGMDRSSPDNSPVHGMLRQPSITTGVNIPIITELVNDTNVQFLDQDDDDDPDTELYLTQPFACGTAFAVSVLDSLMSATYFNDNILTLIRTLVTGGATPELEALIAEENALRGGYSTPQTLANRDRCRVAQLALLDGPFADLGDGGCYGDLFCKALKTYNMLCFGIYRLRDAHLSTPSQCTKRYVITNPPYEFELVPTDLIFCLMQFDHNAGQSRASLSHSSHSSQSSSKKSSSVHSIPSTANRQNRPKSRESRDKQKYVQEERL
Target sequence in this assay (Q86W47 whole entry partner): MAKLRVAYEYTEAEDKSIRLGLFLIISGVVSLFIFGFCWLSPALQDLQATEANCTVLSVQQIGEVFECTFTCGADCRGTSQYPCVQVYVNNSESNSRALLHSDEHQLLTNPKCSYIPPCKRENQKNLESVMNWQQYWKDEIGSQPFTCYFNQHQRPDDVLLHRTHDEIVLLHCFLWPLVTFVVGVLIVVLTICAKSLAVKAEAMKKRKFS

[3] = target: T3, BKCa channels formed by the exon-less alpha subunit (Homo sapiens, UniProt Q12791); test: Whole-cell BKCa current in HEK293 cells expressing the alpha subunit alone; type: cell-based; conditions: HEK293
T3 construct: expressed in transfected cells; host or cells: HEK293

[4] = tested on: salicylate-induced tinnitus in rats; conditions: cited from earlier work
[5] = tested on: murine ex vivo lung slices; conditions: cited from earlier work
[6] = target: T2, BK channel; parameters: host or cells: human airway smooth muscle (ASM) cells; conditions: human ASM cells; cited from earlier work
Target sequence in this assay (Q12791 whole entry): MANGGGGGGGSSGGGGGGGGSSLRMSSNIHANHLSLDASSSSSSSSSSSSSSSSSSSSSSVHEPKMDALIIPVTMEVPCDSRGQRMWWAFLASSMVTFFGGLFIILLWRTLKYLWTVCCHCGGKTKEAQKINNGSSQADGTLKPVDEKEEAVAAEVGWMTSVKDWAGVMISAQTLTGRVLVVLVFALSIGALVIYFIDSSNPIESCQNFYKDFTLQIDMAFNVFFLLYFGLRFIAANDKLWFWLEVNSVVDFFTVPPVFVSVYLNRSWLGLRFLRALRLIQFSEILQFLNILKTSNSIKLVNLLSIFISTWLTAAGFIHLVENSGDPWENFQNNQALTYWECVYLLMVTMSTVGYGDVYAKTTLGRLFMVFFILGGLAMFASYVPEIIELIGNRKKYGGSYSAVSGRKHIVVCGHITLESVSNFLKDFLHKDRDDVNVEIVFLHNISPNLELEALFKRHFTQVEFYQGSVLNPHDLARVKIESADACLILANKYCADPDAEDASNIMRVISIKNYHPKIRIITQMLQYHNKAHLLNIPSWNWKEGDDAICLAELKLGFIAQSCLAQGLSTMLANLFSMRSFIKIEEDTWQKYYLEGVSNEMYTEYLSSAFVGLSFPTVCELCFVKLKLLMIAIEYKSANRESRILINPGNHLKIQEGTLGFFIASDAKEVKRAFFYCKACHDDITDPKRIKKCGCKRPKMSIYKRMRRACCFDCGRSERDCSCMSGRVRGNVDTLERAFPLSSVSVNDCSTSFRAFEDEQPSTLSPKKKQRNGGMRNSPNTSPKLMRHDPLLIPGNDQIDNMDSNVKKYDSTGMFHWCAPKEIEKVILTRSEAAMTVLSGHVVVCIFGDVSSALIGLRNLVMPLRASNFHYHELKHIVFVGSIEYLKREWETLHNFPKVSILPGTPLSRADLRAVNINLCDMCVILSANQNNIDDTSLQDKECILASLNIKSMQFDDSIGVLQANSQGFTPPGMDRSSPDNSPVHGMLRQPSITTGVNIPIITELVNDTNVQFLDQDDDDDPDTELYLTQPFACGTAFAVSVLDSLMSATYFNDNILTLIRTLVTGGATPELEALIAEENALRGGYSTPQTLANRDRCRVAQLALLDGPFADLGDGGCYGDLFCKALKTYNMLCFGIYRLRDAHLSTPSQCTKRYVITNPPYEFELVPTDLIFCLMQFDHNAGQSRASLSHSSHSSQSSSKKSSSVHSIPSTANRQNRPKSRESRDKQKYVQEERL

[7] = tested on: isolated hearts; conditions: after cold cardioplegic arrest; cited from earlier work
[8] = tested on: OVA- and HDM-sensitized mice; conditions: cited from earlier work
[9] = tested on: C57BL/6.Fmr1 knockout mice; test: Contextual fear conditioning in Fmr1 knockout mice; type: in vivo, mouse; conditions: wildtype mice; 2 mg/kg
Protocol: Animals: C57BL/6.J. Fmr1-K02 mice, which have a deletion of the promoter and exonl of the Fmr1 gene (Mientjes et al., 2006) and C57BL/6J wild type (WT) were originated from the Jackson laboratory (Ann Harbor, USA). Mice were housed in groups (4-6 per cage) and all animals were provided with ad libitum food and water unless otherwise stated. Mice were maintained on a 12 h light/12 h dark cycle (lights off 19:00 to 7:00) in a temperature-controlled environment (21±1° C.). Testing was conducted in the light phase. Mice were housed in commercial cages and experiments were performed in line with the United Kingdom Animals (Scientific procedures) Act 1986. All experiments were conducted with experimentors blind to genotype and drug treatment. Each experimental group contained 10 animals.
Drug Treatment: VSN16R was dissolved in saline for injection intravenously via a tail vein using 2 mg/kg a 30 g needle in a volume of 0.1 ml. Animals were inspected for differences in coat appearance, to detect whether any piloerection was present. The eye condition (runny eyes or porphyria, ptosis), gait appearance, tremor, tail tone, reactivity to handling was assessed to detect adverse behavioural effect.
Contextual fear conditioning: Animals are trained to expect an electroshock treatment within a defined environment, such that on subsequent presentation of the environment, freezing behaviours are induced. […]

[10] = tested on: mesenteric arteries; conditions: cited from earlier work
[11] = tested on: Fmr1 knockout mouse; conditions: cited from earlier work
[12] = target: maxi-K channels (Homo sapiens, UniProt Q12791); conditions: cited from earlier work
[13] = tested on: rat models of permanent large-vessel stroke; conditions: cited from earlier work

T3 sequence (Q12791 1-1178 isoform Q12791-5): as the sequence (Q12791 1-1178 isoform Q12791-5) above
T1 sequence (O18866 whole entry): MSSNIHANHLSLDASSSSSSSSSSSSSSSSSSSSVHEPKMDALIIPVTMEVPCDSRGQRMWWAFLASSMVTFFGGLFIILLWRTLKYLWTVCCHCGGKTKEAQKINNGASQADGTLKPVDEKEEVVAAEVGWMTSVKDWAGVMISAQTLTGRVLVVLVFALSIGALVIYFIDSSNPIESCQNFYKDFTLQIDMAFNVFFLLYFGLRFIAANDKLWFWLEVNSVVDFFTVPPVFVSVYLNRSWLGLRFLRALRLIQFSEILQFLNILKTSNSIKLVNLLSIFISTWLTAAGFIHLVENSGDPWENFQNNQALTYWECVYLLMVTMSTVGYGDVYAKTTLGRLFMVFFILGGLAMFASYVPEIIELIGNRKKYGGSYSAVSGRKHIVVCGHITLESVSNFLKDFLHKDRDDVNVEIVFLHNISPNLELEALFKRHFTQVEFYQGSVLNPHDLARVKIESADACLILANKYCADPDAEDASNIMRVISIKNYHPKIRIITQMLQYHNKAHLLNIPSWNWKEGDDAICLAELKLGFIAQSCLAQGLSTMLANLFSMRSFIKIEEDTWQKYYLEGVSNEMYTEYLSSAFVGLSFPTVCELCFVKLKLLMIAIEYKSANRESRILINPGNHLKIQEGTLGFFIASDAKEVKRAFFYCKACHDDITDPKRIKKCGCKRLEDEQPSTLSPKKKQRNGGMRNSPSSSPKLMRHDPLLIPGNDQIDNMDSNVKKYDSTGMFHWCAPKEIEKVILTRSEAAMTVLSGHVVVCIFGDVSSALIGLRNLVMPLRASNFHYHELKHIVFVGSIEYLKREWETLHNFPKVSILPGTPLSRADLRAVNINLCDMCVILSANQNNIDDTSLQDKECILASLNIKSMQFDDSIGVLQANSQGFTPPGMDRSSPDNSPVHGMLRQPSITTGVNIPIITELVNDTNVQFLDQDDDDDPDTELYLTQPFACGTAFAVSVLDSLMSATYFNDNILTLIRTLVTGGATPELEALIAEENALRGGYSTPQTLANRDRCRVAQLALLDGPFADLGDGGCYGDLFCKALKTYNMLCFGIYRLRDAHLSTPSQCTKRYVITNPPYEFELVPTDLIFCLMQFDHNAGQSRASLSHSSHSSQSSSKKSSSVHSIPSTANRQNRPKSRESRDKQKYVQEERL
Chain of maxi-K channels (Q12791 whole entry): as the sequence (Q12791 whole entry) above

Structure (SMILES): Clc1ccccc1C(c1ccccc1)(c1ccccc1)n1cccn1 [TRAM-34, reference compound]
- effect on residual current ([1]; IK channel blocker after VSN16R): a minor effect on this residual current

Structure (SMILES): CC(NC(=O)c1cccc(/C=C\CCCC(=O)N(C)C)c1)C(=O)O [VSN44R, (Z)-(3-(6-(dimethylamino)-6-oxohex-1-en-1-yl)benzoyI)-D-alanine]
- activation of the response of the channel [2]: activation of the response of the channel

Structure (SMILES): CC(C)(O)[C@H]1O[C@H]2CC[C@@]3(C)[C@@](O)(CC[C@H]4Cc5c([nH]c6ccccc56)[C@@]43C)C2=CC1=O [paxilline, (2R,4bS,6aS,12bS,12cR,14aS)-5,6,6a,7,12,12b,12c,13,14,14a-Decahydro-4b-hydroxy-2-(1-hydroxy-1-methylethyl)-12b,12c-dimethyl-2H-pyrano[2″,3″:5′,6′]benz[1′,2′:6,7]indeno[1,2-b]indol-3(4bH)-one, reference compound]
- suppression of BKCa current ([3]; 10 μM): suppressed
- suppression of BKCa current ([3]; 10 μM, listed as Paxilline): consistently suppressed the BKCa current

Structure (SMILES): Nc1ncc(Cc2ccc(Br)cc2)s1 [NS19504, 5-[(4-bromophenyl)methyl]-2-thiazolannine, reference compound]
- enhancement of BKCa current ([3]; 10 μM, steps −40 mV to +70 mV, 200 nM calcium): approximately doubled

Structure (SMILES): CC[N+](CC)(CC)CC [TEA, reference compound]
- suppression of BKCa current ([3]; 5 mM): consistently suppressed the BKCa current

Structure (SMILES): COc1ccc(Cl)cc1[C@@]1(F)C(=O)Nc2cc(C(F)(F)F)ccc21 [R-Maxipost]
- effect on tinnitus ([4]; dose not given): maintained the positive effect on tinnitus

Structure (SMILES): CC(=O)c1c(O)c(C)c(O)c(Cc2c(O)c3c(c(C(=O)/C=C/c4ccccc4)c2O)OC(C)(C)C=C3)c1O [rottlerin]
- frequency of acetylcholine-induced Ca2+ oscillations [5]: reduces the frequency of acetylcholine-induced Ca^2+ oscillations
- BK channel activity [6]: increases BK channel activity
- cardiac contractile performance and coronary perfusion [7]: increases cardiac contractile performance and coronary perfusion
- reduction in Th2 cytokines ([8]; bronchoalveolar lavage fluid): 20-35%
- reduction in inflammatory cells ([8]; bronchoalveolar lavage fluid): 35-40%
- reduction of AHR ([8]; intravenous, within 5 minutes, OVA-asthma mice, P<0.01): 45%
- methacholine-induced airway hyperreactivity (AHR) ([8]; systemic administration): reduces methacholine-induced airway hyperreactivity

Structure (SMILES): CC(CO)NC(=O)c1cccc(/C=C\CCCC(=O)N(C)C)c1 (centres unmarked) [VSN16]
- effect on current ([1]; no BK beta chains): does not stimulate pig aortic endothelial cells
- fear conditioning and digging behaviour in wildtype mice [9]: exhibited no-inhibitory effect
- relaxation of mesenteric arteries [10]: relaxed mesenteric arteries in an endothelium-dependent manner
- vasorelaxation in the presence of rimonabant, AM 251 or O-1918 ([10]; high concentrations of the antagonists): antagonized

Structure (SMILES): COc1ccc(Cl)cc1[C@]1(F)C(=O)Nc2cc(C(F)(F)F)ccc21 [BMS-204352]
- FXS-associated phenotypes [11]: could inhibit the FXS-associated phenotypes
- behavioural effects of tinnitus ([4]; 10 mg/kg): abolished
- opening of maxi-K channels [12]: potent, effective and uniquely Ca^2+-sensitive opener
- cortical neuroprotection ([13]; administered two hours after onset of occlusion): provided significant levels of cortical neuroprotection
- blood pressure or cerebral blood flow ([13]; rat, in vivo): had no effect on blood pressure or cerebral blood flow
